# From the NIST ThermoML archive (doi:10.1016/j.fluid.2007.07.013)
# Numbers after ± are expanded uncertainties.
# Conditions: Liquid
structure (smiles),measurement,setting,value
CCSC [2-thiabutane],vapor or sublimation pressure,247.76 K,1 kPa
same,vapor or sublimation pressure,272.96 K,6 kPa
same,vapor or sublimation pressure,293.23 K,17 ± 12 kPa
same,vapor or sublimation pressure,293.41 K,17 ± 12 kPa
same,vapor or sublimation pressure,313.33 K,40 ± 12 kPa
same,vapor or sublimation pressure,313.35 K,40 ± 12 kPa
CSC [2-thiapropane],vapor or sublimation pressure,252.89 K,8 ± 12 kPa
same,vapor or sublimation pressure,253.06 K,8 ± 12 kPa
same,vapor or sublimation pressure,272.76 K,22 ± 12 kPa
same,vapor or sublimation pressure,278.46 K,29 ± 12 kPa
same,vapor or sublimation pressure,293.16 K,53 ± 12 kPa
same,vapor or sublimation pressure,293.43 K,54 ± 12 kPa
same,vapor or sublimation pressure,313.3 K,112 ± 12 kPa
same,vapor or sublimation pressure,313.43 K,112 ± 12 kPa
S=C=S [carbon disulfide],vapor or sublimation pressure,273.08 K,17 ± 12 kPa
same,vapor or sublimation pressure,298.4 K,49 ± 12 kPa
same,vapor or sublimation pressure,323.5 K,116 ± 12 kPa
same,vapor or sublimation pressure,348.45 K,240 ± 12 kPa
CCS [ethanethiol],vapor or sublimation pressure,272.94 K,25 ± 12 kPa
same,vapor or sublimation pressure,293.36 K,59 ± 12 kPa
same,vapor or sublimation pressure,313.41 K,121 ± 12 kPa
S [hydrogen sulfide],vapor or sublimation pressure,273.08 K,1033 ± 17 kPa
same,vapor or sublimation pressure,298.4 K,2024 ± 26 kPa
same,vapor or sublimation pressure,323.5 K,3564 ± 44 kPa
same,vapor or sublimation pressure,348.45 K,5812 ± 72 kPa
CS [methanethiol],vapor or sublimation pressure,243.19 K,20 ± 12 kPa
same,vapor or sublimation pressure,258 K,42 ± 12 kPa
same,vapor or sublimation pressure,272.98 K,80 ± 12 kPa
same,vapor or sublimation pressure,293.35 K,170 ± 12 kPa
same,vapor or sublimation pressure,298.23 K,200 ± 12 kPa
